{"source": "patent US20190133985A1", "about": "(Orbus Therapeutics, Inc., priority 2016, published 2019)", "key": {"U87MG cells": {"tested_on": "U87MG cells", "assay": "Exon-Seq mutation frequency in glioblastoma cell line model (nucleotides susceptible to TMZ-induced mutations)", "type": "cell-based, human", "protocol": "Preliminary data analysis was performed to identify nucleotides susceptible to temozolomide (TMZ)-induced mutations per TMZ concentration. Mutation frequency results were analyzed for 13,040 nucleotide polymorphisms across 6,455 genes that have been previously identified as potentially cancer related based on their description in the Catalogue of Somatic Mutations in Cancer (COSMIC) database.\nStatistical analysis of the Exon-Seq data was performed using JMP™ Software. The mutation frequencies were analyzed using ANOVA analysis of variance and the Student's t-test."}, "ADAM 32 gene": {"tested_on": "ADAM 32 gene", "assay": "Exon-Seq frequency of G/A mutation at chr8: 38,964,647 in U87MG cells", "settings": "for mutation rate: TMZ EC-50 for 3 days then eflornithine 200 μM"}, "GPR116 gene": {"tested_on": "GPR116 gene", "assay": "Exon-Seq frequency of C/T mutation at chr6: 46,867,771 in U87MG cells", "settings": "for mutation rate: TMZ EC-20 for 3 days then eflornithine 100 μM"}, "MUC16 gene": {"tested_on": "MUC16 gene", "assay": "Exon-Seq frequency of T/A mutation at chr19: 9,071,763 in U87MG cells", "settings": "for mutation rate: TMZ EC-50 for 3 days then eflornithine 200 μM"}, "TP53BP1 gene": {"tested_on": "TP53BP1 gene", "assay": "Exon-Seq frequency of C/T mutation at chr15: 43,762,196 in U87MG cells", "settings": "for mutation rate: TMZ EC-50 for 3 days then eflornithine 200 μM"}, "low-grade gliomas": {"tested_on": "low-grade gliomas", "settings": "adjuvant temozolomide chemotherapy; TMZ-induced mutagenesis signature in RB and AKT-mTOR pathways; cited from earlier work"}}, "note": "Where a name gives a salt, the structure may show the parent alone.", "data": [{"smiles": "NCCCC(N)(C(=O)O)C(F)F", "note": "(racemic) [eflornithine, D,L-2-(difluoromethyl) ornithine monohydrochloride monohydrate]", "values": [{"measurement": "effect on mutation rate compared to the TMZ-treated cells, combined data set (ANOVA, Student's t-test)", "setting": "U87MG cells; sequential DFMO 100 μM after TMZ EC-20", "value": "significant decrease"}, {"measurement": "effect on mutation rate compared to the TMZ-treated cells, combined data set (ANOVA, Student's t-test)", "setting": "U87MG cells; sequential eflornithine 50 μM after TMZ EC-10", "value": "significant decrease"}, {"measurement": "effect on mutation rate compared to the TMZ-treated cells, combined data set (ANOVA, Student's t-test)", "setting": "U87MG cells; sequential eflornithine 200 μM after TMZ EC-50", "value": "significant decrease"}, {"measurement": "mutation rate", "setting": "ADAM 32 gene; 7 days", "value": 33.3, "unit": "%"}, {"measurement": "mutation rate", "setting": "ADAM 32 gene; 14 days", "value": 43.2, "unit": "%"}, {"measurement": "mutation rate", "setting": "GPR116 gene; 7 days", "value": 60.6, "unit": "%"}, {"measurement": "mutation rate", "setting": "GPR116 gene; 14 days", "value": 45.0, "unit": "%"}, {"measurement": "mutation rate", "setting": "MUC16 gene; 7 days", "value": 49.1, "unit": "%"}, {"measurement": "mutation rate", "setting": "MUC16 gene; 14 days", "value": 47.3, "unit": "%"}, {"measurement": "mutation rate", "setting": "TP53BP1 gene; 7 days", "value": 29.7, "unit": "%"}, {"measurement": "mutation rate", "setting": "TP53BP1 gene; 14 days", "value": 38.4, "unit": "%"}]}, {"smiles": "Cn1nnc2c(C(N)=O)ncn2c1=O", "note": "[TMZ, 4-methyl-5-oxo-2,3,4,6,8-pentazabicyclo[4.3.0]nona-2,7,9-triene-9-carboxamide]", "values": [{"measurement": "Number of nucleotides showing higher than 15% mutation frequency increase due to TMZ treatment", "setting": "U87MG cells; All three concentrations", "value": 97}, {"measurement": "Number of nucleotides showing higher than 15% mutation frequency increase due to TMZ treatment", "setting": "U87MG cells; At least one concentration", "value": 876}, {"measurement": "Mean Mutation Frequency", "setting": "U87MG cells; TMZ EC10, T = 3 days", "value": 57, "unit": "%"}, {"measurement": "Number of nucleotides showing higher than 15% mutation frequency increase due to TMZ treatment", "setting": "U87MG cells; TMZ EC10, 13,040 nucleotide polymorphisms across 6,455 genes", "value": 424}, {"measurement": "Number of nucleotides showing higher than 15% mutation frequency increase due to TMZ treatment", "setting": "U87MG cells; TMZ EC20", "value": 436}, {"measurement": "Mean Mutation Frequency", "setting": "U87MG cells; TMZ EC20, T = 3 days", "value": 59, "unit": "%"}, {"measurement": "Number of nucleotides showing higher than 15% mutation frequency increase due to TMZ treatment", "setting": "U87MG cells; TMZ EC50", "value": 417}, {"measurement": "Mean Mutation Frequency", "setting": "U87MG cells; TMZ EC50, T = 3 days", "value": 60, "unit": "%"}, {"measurement": "effect on mutation frequency, combined data set (ANOVA, Student's t-test)", "setting": "U87MG cells; TMZ EC-10", "value": "significant increase"}, {"measurement": "effect on mutation frequency, combined data set (ANOVA, Student's t-test)", "setting": "U87MG cells; TMZ EC-20", "value": "significant increase"}, {"measurement": "effect on mutation frequency, combined data set (ANOVA, Student's t-test)", "setting": "U87MG cells; TMZ EC-50", "value": "significant increase"}, {"measurement": "patients whose tumors showed hypermutation (alternative evolutionary path to high-grade glioma)", "setting": "low-grade gliomas", "value": "6 of 10"}, {"measurement": "mutation frequency", "setting": "ADAM 32 gene; TMZ EC-50, day 3", "value": 63.6, "unit": "%"}, {"measurement": "mutation frequency", "setting": "GPR116 gene; TMZ EC-20, day 3", "value": 69.6, "unit": "%"}, {"measurement": "mutation frequency", "setting": "MUC16 gene; TMZ EC-50, day 3", "value": 64.0, "unit": "%"}, {"measurement": "mutation frequency", "setting": "TP53BP1 gene; TMZ EC-50, day 3", "value": 62.5, "unit": "%"}]}]}
